Data taken from ChEMBL document CHEMBL4350989, “Discovery of 2,4-diarylaminopyrimidine derivatives bearing dithiocarbamate moiety as novel FAK inhibitors with antitumor and anti-angiogenesis activities” (Eur J Med Chem, 2019).
Active and inactive are the calls of the source. No cut-off for these calls is given here.

Legend:
[1] = tested on: HCT-116; test: Antiproliferative activity against human HCT116 cells overexpressing FAK assessed as reduction in cell viability after 72 hrs by MTS assay; details: HCT-116, 72 h
[2] = tested on: U-87 MG; test: Antiproliferative activity against human U87MG cells overexpressing FAK assessed as reduction in cell viability after 72 hrs by MTS assay
[3] = tested on: MCF-10A; test: Cytotoxicity against human MCF10A cells assessed as reduction in cell viability after 72 hrs by MTS assay
[4] = tested on: HCT-116; test: Induction of cell cycle arrest in human HCT116 cells assessed as accumulation at G0/G1 phase at 0.005 uM after 24 hrs by 7-AAD staining-based flow cytometric analysis (reference value: 50.53%); type: functional
[5] = tested on: HCT-116; test: Induction of cell cycle arrest in human HCT116 cells assessed as accumulation at G2/M phase at 0.005 uM after 24 hrs by 7-AAD staining-based flow cytometric analysis (reference value: 12.26%); type: functional
[6] = tested on: HCT-116; test: Induction of cell cycle arrest in human HCT116 cells assessed as accumulation at S phase at 0.005 uM after 24 hrs by 7-AAD staining-based flow cytometric analysis (reference value: 37.20%); type: functional
[7] = tested on: HCT-116; test: Induction of cell cycle arrest in human HCT116 cells assessed as accumulation at G0/G1 phase at 0.05 uM after 24 hrs by 7-AAD staining-based flow cytometric analysis (reference value: 50.53%); type: functional
[8] = tested on: HCT-116; test: Induction of cell cycle arrest in human HCT116 cells assessed as accumulation at G0/G1 phase at 0.1 uM after 24 hrs by 7-AAD staining-based flow cytometric analysis (reference value: 50.53%); type: functional
[9] = tested on: HCT-116; test: Induction of cell cycle arrest in human HCT116 cells assessed as accumulation at S phase at 0.1 uM after 24 hrs by 7-AAD staining-based flow cytometric analysis (reference value: 37.20%); type: functional
[10] = tested on: MCF7; test: Induction of cell cycle arrest in human MCF7 cells assessed as accumulation at G0/G1 phase at 0.005 uM after 24 hrs by 7-AAD staining-based flow cytometric analysis (reference value: 62.45%); type: functional
[11] = tested on: MCF7; test: Induction of cell cycle arrest in human MCF7 cells assessed as accumulation at S phase at 0.005 uM after 24 hrs by 7-AAD staining-based flow cytometric analysis (reference value: 26.07%); type: functional
[12] = tested on: MCF7; test: Induction of cell cycle arrest in human MCF7 cells assessed as accumulation at G2/M phase at 0.05 uM after 24 hrs by 7-AAD staining-based flow cytometric analysis (reference value: 11.48%); type: functional
[13] = tested on: MCF7; test: Induction of cell cycle arrest in human MCF7 cells assessed as accumulation at S phase at 0.05 uM after 24 hrs by 7-AAD staining-based flow cytometric analysis (reference value: 26.07%); type: functional
[14] = tested on: MCF7; test: Induction of cell cycle arrest in human MCF7 cells assessed as accumulation at G0/G1 phase at 0.01 uM after 24 hrs by 7-AAD staining-based flow cytometric analysis (reference value: 62.45%); type: functional
[15] = tested on: MCF7; test: Induction of cell cycle arrest in human MCF7 cells assessed as accumulation at G2/M phase at 0.01 uM after 24 hrs by 7-AAD staining-based flow cytometric analysis (reference value: 11.48%); type: functional
[16] = tested on: HCT-116; test: Induction of cell cycle arrest in human HCT116 cells assessed as increase in accumulation at G2/M phase after 24 hrs by 7-AAD staining-based flow cytometric analysis; type: functional
[17] = tested on: MCF7; test: Induction of apoptosis in human MCF7 cells assessed as early apoptotic cells at 0.005 uM after 24 hrs by Annexin-V and 7-AAD staining based flow cytometric analysis (reference value: 2.04%); type: functional
[18] = tested on: MCF7; test: Induction of apoptosis in human MCF7 cells assessed as late apoptotic cells at 0.005 uM after 24 hrs by Annexin-V and 7-AAD staining based flow cytometric analysis (reference value: 7.63%); type: functional
[19] = tested on: MCF7; test: Induction of apoptosis in human MCF7 cells assessed as viable cells at 0.01 uM after 24 hrs by Annexin-V and 7-AAD staining based flow cytometric analysis (reference value: 90.2%); type: functional; details: MCF7, 24 h, read-out: Activity
[20] = tested on: MCF7; test: Induction of apoptosis in human MCF7 cells assessed as late apoptotic cells at 0.01 uM after 24 hrs by Annexin-V and 7-AAD staining based flow cytometric analysis (reference value: 7.63%); type: functional
[21] = tested on: MCF7; test: Induction of apoptosis in human MCF7 cells assessed as necrotic cells at 0.05 uM after 24 hrs by Annexin-V and 7-AAD staining based flow cytometric analysis (reference value: 0.16%); type: functional
[22] = tested on: HCT-116; test: Induction of apoptosis in human HCT116 cells assessed as viable cells at 0.005 uM after 24 hrs by Annexin-V and 7-AAD staining based flow cytometric analysis (reference value: 88.6%); type: functional; details: HCT-116, 24 h, read-out: Activity
[23] = tested on: HCT-116; test: Induction of apoptosis in human HCT116 cells assessed as late apoptotic cells at 0.005 uM after 24 hrs by Annexin-V and 7-AAD staining based flow cytometric analysis (reference value: 2.63%); type: functional
[24] = tested on: HCT-116; test: Induction of apoptosis in human HCT116 cells assessed as necrotic cells at 0.005 uM after 24 hrs by Annexin-V and 7-AAD staining based flow cytometric analysis (reference value: 0.68%); type: functional
[25] = tested on: HCT-116; test: Induction of apoptosis in human HCT116 cells assessed as viable cells at 0.1 uM after 24 hrs by Annexin-V and 7-AAD staining based flow cytometric analysis (reference value: 88.6%); type: functional; details: HCT-116, 24 h, read-out: Activity
[26] = tested on: HCT-116; test: Induction of apoptosis in human HCT116 cells assessed as late apoptotic cells at 0.1 uM after 24 hrs by Annexin-V and 7-AAD staining based flow cytometric analysis (reference value: 2.63%); type: functional
[27] = tested on: HCT-116; test: Induction of apoptosis in human HCT116 cells assessed as necrotic cells at 0.1 uM after 24 hrs by Annexin-V and 7-AAD staining based flow cytometric analysis (reference value: 0.68%); type: functional
[28] = tested on: HCT-116; test: Induction of apoptosis in human HCT116 cells assessed as viable cells at 0.05 uM after 24 hrs by Annexin-V and 7-AAD staining based flow cytometric analysis (reference value: 88.6%); type: functional; details: HCT-116, 24 h, read-out: Activity
[29] = tested on: HCT-116; test: Induction of apoptosis in human HCT116 cells assessed as early apoptotic cells at 0.05 uM after 24 hrs by Annexin-V and 7-AAD staining based flow cytometric analysis (reference value: 8.11%); type: functional
[30] = tested on: HCT-116; test: Induction of apoptosis in human HCT116 cells assessed as late apoptotic cells at 0.05 uM after 24 hrs by Annexin-V and 7-AAD staining based flow cytometric analysis (reference value: 2.63%); type: functional
[31] = tested on: HCT-116; test: Induction of apoptosis in human HCT116 cells assessed as necrotic cells at 0.05 uM after 24 hrs by Annexin-V and 7-AAD staining based flow cytometric analysis (reference value: 0.68%); type: functional
[32] = tested on: HCT-116; test: Induction of apoptosis in human HCT116 cells after 24 hrs by Annexin-V and 7-AAD staining based flow cytometric analysis; type: functional, cell-based
[33] = organism: Homo sapiens; details: 0.05 to 0.1 uM
Description: Antimigratory activity against human MCF7 cells assessed as reduction in cell migration at 0.05 to 0.1 uM incubated for 30 mins and measured after 24 hrs by crystal violet staining based inverted microscopic analysis

CNC(=O)c1ccccc1Nc1nc(Nc2ccc(C(=O)N3CCN(C(=S)SCCN(C)C)CC3)cc2)ncc1C(F)(F)F
IC50 [1]: 1 nM
IC50 [2]: 60 nM
IC50 [3]: 280 nM
Activity [4]: 39.76%
Activity [5]: 18.38%
Activity [6]: 41.86%
Activity [7]: 3.4%
Activity [8]: 5.14%
Activity [9]: 4.4%
Activity [10]: 41.93%
Activity [11]: 21.4%
Activity [12]: 86.08%
Activity [13]: 7.2%
Activity [14]: 9.52%
Activity [15]: 81.73%
Activity [16]: Dose-dependent effect
Activity [17]: 9.11%
Activity [18]: 16.5%
viability at 0.01 µM [19]: 71.2%
Activity [20]: 21.4%
Activity [21]: 0.56%
viability at 0.005 µM [22]: 82.4%
Activity [23]: 1.42%
Activity [24]: 0.2%
viability at 0.1 µM [25]: 78.4%
Activity [26]: 0.16%
Activity [27]: 0%
viability at 0.05 µM [28]: 79.3%
Activity [29]: 18.7%
Activity [30]: 1.68%
Activity [31]: 0.29%
Activity [32]: Dose-dependent effect
inhibition [33]: Active
